Test results as given in ChEMBL document CHEMBL4346657, “Anticancer activity, dual prooxidant/antioxidant effect and apoptosis induction profile of new bichalcophene-5-carboxamidines” (Eur J Med Chem, 2019).
The source made the active and inactive calls. The rule behind the calls is not given here.

Tests used:
[1] = test system: TK-10; experiment: Antiproliferative activity against human TK10 cells assessed as growth inhibition after 48 hrs by sulforhodamine B assay; assay type: functional; details: TK-10, 48 h
[2] = test system: MCF7; experiment: Antiproliferative activity against human MCF7 cells assessed as growth inhibition after 48 hrs by sulforhodamine B assay; assay type: functional; details: MCF7, 48 h
[3] = test system: Panel NCI-60 (60 carcinoma cell lines); experiment: Antiproliferative activity against human NCI60 cells assessed as growth inhibition at 10 uM after 48 hrs by sulforhodamine B assay; assay type: functional; details: read-out: GI
[4] = test system: DU-145; experiment: Antiproliferative activity against human DU145 cells assessed as growth inhibition after 48 hrs by sulforhodamine B assay; assay type: functional; details: DU-145, 48 h
[5] = test system: SK-OV-3; experiment: Antiproliferative activity against human SKOV3 cells assessed as growth inhibition after 48 hrs by sulforhodamine B assay; assay type: functional; details: SK-OV-3, 48 h
[6] = test system: OVCAR-8; experiment: Antiproliferative activity against human OVCAR8 cells assessed as growth inhibition after 48 hrs by sulforhodamine B assay; assay type: functional; details: OVCAR-8, 48 h
[7] = test system: OVCAR-4; experiment: Antiproliferative activity against human OVCAR4 cells assessed as growth inhibition after 48 hrs by sulforhodamine B assay; assay type: functional; details: OVCAR-4, 48 h
[8] = test system: UACC-62; experiment: Antiproliferative activity against human UACC62 cells assessed as growth inhibition after 48 hrs by sulforhodamine B assay; assay type: functional; details: UACC-62, 48 h
[9] = test system: UACC-257; experiment: Antiproliferative activity against human UACC257 cells assessed as growth inhibition after 48 hrs by sulforhodamine B assay; assay type: functional; details: UACC-257, 48 h
[10] = test system: Malme-3M; experiment: Antiproliferative activity against human MALME-3M cells assessed as growth inhibition after 48 hrs by sulforhodamine B assay; assay type: functional
[11] = test system: LOX IMVI; experiment: Antiproliferative activity against human LOXIMVI cells assessed as growth inhibition after 48 hrs by sulforhodamine B assay; assay type: functional
[12] = test system: U-251; experiment: Antiproliferative activity against human U251 cells assessed as growth inhibition after 48 hrs by sulforhodamine B assay; assay type: functional; details: U-251, 48 h
[13] = test system: SF-539; experiment: Antiproliferative activity against human SF539 cells assessed as growth inhibition after 48 hrs by sulforhodamine B assay; assay type: functional; details: SF-539, 48 h
[14] = test system: SF-268; experiment: Antiproliferative activity against human SF268 cells assessed as growth inhibition after 48 hrs by sulforhodamine B assay; assay type: functional; details: SF-268, 48 h
[15] = test system: SW-620; experiment: Antiproliferative activity against human SW620 cells assessed as growth inhibition after 48 hrs by sulforhodamine B assay; assay type: functional; details: SW-620, 48 h
[16] = test system: HT-29; experiment: Antiproliferative activity against human HT-29 cells assessed as growth inhibition after 48 hrs by sulforhodamine B assay; assay type: functional; details: HT-29, 48 h
[17] = test system: HCT-116; experiment: Antiproliferative activity against human HCT116 cells assessed as growth inhibition after 48 hrs by sulforhodamine B assay; assay type: functional; details: HCT-116, 48 h
[18] = test system: HCC 2998; experiment: Antiproliferative activity against human HCC2998 cells assessed as growth inhibition after 48 hrs by sulforhodamine B assay; assay type: functional; details: HCC 2998, 48 h
[19] = test system: NCI-H23; experiment: Antiproliferative activity against human NCI-H23 cells assessed as growth inhibition after 48 hrs by sulforhodamine B assay; assay type: functional; details: NCI-H23, 48 h
[20] = test system: HOP-62; experiment: Antiproliferative activity against human HOP62 cells assessed as growth inhibition after 48 hrs by sulforhodamine B assay; assay type: functional; details: HOP-62, 48 h
[21] = test system: A549; experiment: Antiproliferative activity against human A549/ATCC cells assessed as growth inhibition after 48 hrs by sulforhodamine B assay; assay type: functional; details: A549, 48 h
[22] = test system: SR; experiment: Antiproliferative activity against human SR cells assessed as growth inhibition after 48 hrs by sulforhodamine B assay; assay type: functional
[23] = test system: RPMI-8226; experiment: Antiproliferative activity against human RPMI8226 cells assessed as growth inhibition after 48 hrs by sulforhodamine B assay; assay type: functional; details: RPMI-8226, 48 h
[24] = test system: MOLT-4; experiment: Antiproliferative activity against human MOLT4 cells assessed as growth inhibition after 48 hrs by sulforhodamine B assay; assay type: functional; details: MOLT-4, 48 h
[25] = test system: T47D; experiment: Antiproliferative activity against human T47D cells assessed as growth inhibition after 48 hrs by sulforhodamine B assay; assay type: functional
[26] = test system: MDA-MB-468; experiment: Antiproliferative activity against human MDA-MB-468 cells assessed as growth inhibition after 48 hrs by sulforhodamine B assay; assay type: functional; details: MDA-MB-468, 48 h
[27] = Haemolytic activity in human erythrocytes assessed as induction of hemolysis at 10 mM after 30 mins relative to H202; assay type: cell-based, Erythrocyte; details: read-out: Activity
[28] = (§1) Haemolytic activity in human erythrocytes assessed as induction of hemolysis at 2.5 mM after 30 mins relative to H202; assay type: cell-based, Erythrocyte; details: erythrocytes, read-out: Activity
[29] = test system: Erythrocyte; experiment: Haemolytic activity in human erythrocytes assessed as induction of hemolysis at 1.25 mM after 30 mins relative to H202; assay type: cell-based; details: erythrocyte, 0.5 h, 1250 µM
[30] = Antioxidant activity assessed as DPPH radical scavenging activity incubated in dark for 30 mins by spectrophotometric method relative to control; assay type: functional; design: concentration or dose not given beside the values
[31] = Antioxidant activity assessed as DPPH radical scavenging activity incubated in dark for 30 mins by spectrophotometric method relative to ascorbic acid; assay type: functional
[32] = Antioxidant activity assessed as ABTS radical scavenging activity by spectrophotometric analysis relative to control; assay type: functional; design: concentration or dose not given beside the values; details: dose or concentration not given here
[33] = Antioxidant activity assessed as hydroxyl radical scavenging activity after 1 hr by salicylic acid-based Fenton reaction assay; assay type: functional
[34] = Pro-oxidant activity assessed as increase in bleomycin-Fe2+ induced calf thymus DNA damage at 2 mM after 1 hr by thiobarbituric acid based absorbance analysis
[35] = test system: HCT-116; experiment: Induction of apoptosis in human HCT116 cells assessed as increase in caspase 3 mRNA expression at 100 nM after 6 hrs hrs by SYBR green dye-based qRT-PCR analysis relative to control; assay type: functional
[36] = test system: HCT-116; experiment: Induction of apoptosis in human HCT116 cells assessed as increase in caspase 9 mRNA expression at 100 nM after 6 hrs hrs by SYBR green dye-based qRT-PCR analysis relative to control; assay type: functional
[37] = test system: HCT-116; experiment: Reduction in CDK1 mRNA expression in human HCT116 cells at 100 nM after 6 hrs hrs by SYBR green dye-based qRT-PCR analysis relative to control; assay type: functional; details: HCT-116, 6 h
[38] = test system: Erythrocyte; experiment: as §1; assay type: cell-based; details: erythrocyte, 0.5 h, 2500 µM
[39] = test system: HOP-92; experiment: Antiproliferative activity against human HOP92 cells assessed as growth inhibition after 48 hrs by sulforhodamine B assay; assay type: functional; details: HOP-92, 48 h

SMILES | GI50 [1] [nM] | GI50 [2] [nM] | inhibition of growth at 10 µM [3] [%] | GI50 [4] [nM] | GI50 [5] [nM] | GI50 [6] [nM] | GI50 [7] [nM] | GI50 [8] [nM] | GI50 [9] [nM] | GI50 [10] [nM] | GI50 [11] [nM] | GI50 [12] [nM] | GI50 [13] [nM] | GI50 [14] [nM] | GI50 [15] [nM] | GI50 [16] [nM] | GI50 [17] [nM] | GI50 [18] [nM] | GI50 [19] [nM] | GI50 [20] [nM] | further results
N=C(N)c1ccc(-c2ccc(-c3cc(Cl)cc(Cl)c3)o2)o1 | 1860 | 1350 | -57.8 | 1780 | 1800 | 2230 | 1850 | 1940 | 2050 | 1840 | 1680 | 1820 | 1720 | 1770 | 1680 | 1500 | 1210 | 1840 | 1670 | 1890 | GI50 [21]: 1950 nM; GI50 [22]: 630 nM; GI50 [23]: 2130 nM; GI50 [24]: 1690 nM; GI50 [25]: 1720 nM; GI50 [26]: 2230 nM; hemolysis at 0.5 h, 10000 µM [27]: 89.3%; hemolysis at 0.5 h, 2500 µM [28]: 11.1%; Activity [29]: Non-Toxic; inhibition [30]: 15.7%; fold change (FC) [31]: 0.2; inhibition [32]: 19%; Activity [33]: Active; Activity [34]: Active; fold change (FC) [35]: 2.81; fold change (FC) [36]: 2.97; inhibition at 0.1 µM [37]: 46%
COc1ccc2cc(-c3ccc(-c4ccc(C(=N)N)s4)s3)ccc2c1 | 14200 | 1910 | 95.3 | 1700 | 17900 | 2340 | 1820 | 2010 | 19600 | 3320 | 1950 | 1830 | 3910 | 2100 | 1910 | 1720 | 2080 | 3350 | 3220 | 1780 | GI50 [21]: 2220 nM; GI50 [22]: 850 nM; GI50 [23]: 2160 nM; GI50 [24]: 2170 nM; GI50 [25]: 1790 nM; GI50 [26]: 2340 nM; hemolysis at 0.5 h, 10000 µM [27]: 18.7%; Activity [38]: Non-Toxic; Activity [29]: Non-Toxic; inhibition [30]: 43%; fold change (FC) [31]: 0.5; inhibition [32]: 57.4%; Activity [33]: Active; Activity [34]: Active; fold change (FC) [35]: 2.44; fold change (FC) [36]: 2.51
N=C(N)c1ccc(-c2ccc(-c3cncc4ccccc34)s2)s1 | 1840 | 280 | -59.2 | 1550 | 1580 | 1830 | 300 | 2310 | 2470 | 1610 | 1110 | 1720 | 1730 | 1630 | 1080 | 560 | 1610 | 1530 | 1760 | 1700 | GI50 [39]: 1370 nM; GI50 [21]: 1620 nM; GI50 [22]: 270 nM; GI50 [23]: 1780 nM; GI50 [24]: 1170 nM; GI50 [25]: 1520 nM; GI50 [26]: 1270 nM; hemolysis at 0.5 h, 10000 µM [27]: 12.3%; Activity [38]: Non-Toxic; Activity [29]: Non-Toxic; inhibition [30]: 52.5%; fold change (FC) [31]: 0.6; inhibition [32]: 69.9%; Activity [33]: Active; Activity [34]: Active; fold change (FC) [35]: 3.03; fold change (FC) [36]: 1.27; inhibition at 0.1 µM [37]: 84%
N=C(N)c1ccc(-c2ccc(-c3cc(Cl)cc(Cl)c3)s2)s1 | 1850 | 1340 | -28.6 | 1820 | 3620 | 2390 | 1910 | 1920 | 2050 | 1850 | 1690 | 1860 | 1700 | 1960 | 1920 | 1650 | 1610 | 1750 | 1990 | 1760 | GI50 [21]: 2070 nM; GI50 [22]: 1060 nM; GI50 [23]: 2330 nM; GI50 [24]: 1710 nM; GI50 [25]: 1800 nM; GI50 [26]: 2060 nM; hemolysis at 0.5 h, 10000 µM [27]: 17%; Activity [38]: Non-Toxic; Activity [29]: Non-Toxic; inhibition [30]: 27.2%; fold change (FC) [31]: 0.3; inhibition [32]: 36.2%; Activity [33]: Active; Activity [34]: Active; fold change (FC) [35]: 1.61; fold change (FC) [36]: 1.54; inhibition at 0.1 µM [37]: 79%
